The NIST ThermoML archive (doi:10.1021/acs.jced.6b00703)
Numbers after ± are expanded uncertainties.

Conditions: 101 kPa, Liquid, Drop weight

SMILES | interfacial tension (292.15 K) | interfacial tension (283.15 K) | interfacial tension (289.15 K) | interfacial tension (290.15 K) | interfacial tension (293.15 K) | interfacial tension (303.15 K) | interfacial tension (313.15 K) | interfacial tension (323.15 K) | interfacial tension (333.15 K)
CCC(C)=O [butanone] + O | 0.92 ± 1 mN/m |  |  |  |  |  |  |  | 
CCCCOC(C)=O [butyl ethanoate] + O |  | 15.3 ± 1 mN/m | 14.9 ± 1 mN/m | 14.95 ± 1 mN/m | 15.3 ± 1 mN/m | 15.2 ± 1 mN/m | 15.1 ± 1 mN/m | 14.3 ± 1 mN/m | 
OC1CCCCC1 [cyclohexanol] + O |  |  |  |  |  | 4.17 ± 1 mN/m | 4.15 ± 1 mN/m | 3.97 ± 1 mN/m | 3.95 ± 1 mN/m
O=C1CCCCC1 [cyclohexanone] + O |  | 4.78 ± 1 mN/m | 4.43 ± 1 mN/m |  | 4.87 ± 1 mN/m | 5.08 ± 1 mN/m | 5.05 ± 1 mN/m | 4.71 ± 1 mN/m | 
CCOCC [diethyl ether] + O |  |  |  |  | 9.03 ± 1 mN/m |  |  |  | 
CCOC(C)=O [ethyl acetate] + O |  | 7.61 ± 1 mN/m | 7.37 ± 1 mN/m |  | 7.29 ± 1 mN/m | 7.19 ± 1 mN/m | 7.15 ± 1 mN/m | 6.99 ± 1 mN/m | 
CC1CCCCC1 [methylcyclohexane] + O |  |  |  |  | 51.4 ± 1.1 mN/m |  |  |  | 
CCCCCCCCO [octan-1-ol] + O |  |  | 9.1 ± 1 mN/m |  |  |  |  |  | 
Cc1ccccc1 [toluene] + O |  | 36.1 ± 1.1 mN/m |  | 35.8 ± 1.1 mN/m | 36.3 ± 1.1 mN/m | 36 ± 1.1 mN/m | 35.3 ± 1.1 mN/m | 34 ± 1 mN/m | 
